# Literature values in patent US20220354784A1, “STABLE LATANOPROST COMPOUND OPHTHALMIC COMPOSITIONS” (Somerset Therapeutics LLC, priority 2021, published 2022).
# Settings: patients starting on monotherapy
row,Compound,rate of adjunctive medication use [%]
1,CCNC(=O)CCC/C=C\C[C@@H]1[C@@H](/C=C/[C@@H](O)CCc2ccccc2)[C@H](O)C[C@@H]1O [bimatoprost],23.2
2,"CC(C)OC(=O)CCC/C=C\C[C@@H]1[C@@H](CC[C@@H](O)CCc2ccccc2)[C@H](O)C[C@@H]1O [latanoprost, isopropyl (Z)-7[(1R,2R,3R,5S)3,5-dihydroxy-2-[(3R)-3-hydroxy-5-phenylpentyl]cyclopentyl]-5-heptanoate]",30.2
3,CC(C)OC(=O)CCC/C=C\C[C@@H]1[C@@H](/C=C/[C@@H](O)COc2cccc(C(F)(F)F)c2)[C@H](O)C[C@@H]1O [travoprost],22.5
